Data: the supplement of paper PMC10307832

Assays:
Assay in all cases: relative viability (nuclei count vs DMSO), 5 days (fraction); higher = more cells survive
EHT 1864 + Pictilisib = compound: C1COCCN1CC2=CC(=O)C(=CO2)OCCCCCSC3=C4C=CC(=CC4=NC=C3)C(F)(F)F [EHT 1864] + CS(=O)(=O)N1CCN(Cc2cc3nc(-c4cccc5[nH]ncc45)nc(N4CCOCC4)c3s2)CC1 [Pictilisib] (partner 1 µM)
Summary of the method: (§1)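 Lung cancer cell lines in 1536-well plates got either a single drug or a fixed anchor-drug dose together with five library-drug doses (not always all listed) in √10 steps, by pin tool, on the day after seeding. Nuclei were counted after 5 days, and relative viability is the treated-to-vehicle ratio of nuclei counts. Values are medians of duplicate plates.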

EHT 1864 + Navitoclax = compound: C1COCCN1CC2=CC(=O)C(=CO2)OCCCCCSC3=C4C=CC(=CC4=NC=C3)C(F)(F)F [EHT 1864] + CC1(C)CCC(c2ccc(Cl)cc2)=C(CN2CCN(c3ccc(C(=O)NS(=O)(=O)c4ccc(N[C@H](CCN5CCOCC5)CSc5ccccc5)c(S(=O)(=O)C(F)(F)F)c4)cc3)CC2)C1 [Navitoclax] (partner 0.5 µM)
Summary of the method: as §1

EHT 1864 + Bortezomib = compound: C1COCCN1CC2=CC(=O)C(=CO2)OCCCCCSC3=C4C=CC(=CC4=NC=C3)C(F)(F)F [EHT 1864] + CC(C)C[C@H](NC(=O)[C@H](Cc1ccccc1)NC(=O)c1cnccn1)B(O)O [Bortezomib] (partner 0.002 µM)
Summary of the method: as §1

EHT 1864 + Linsitinib = compound: C1COCCN1CC2=CC(=O)C(=CO2)OCCCCCSC3=C4C=CC(=CC4=NC=C3)C(F)(F)F [EHT 1864] + C[C@]1(O)C[C@@H](c2nc(-c3ccc4ccc(-c5ccccc5)nc4c3)c3c(N)nccn32)C1 [Linsitinib] (partner 1 µM)
Summary of the method: as §1

EHT 1864 + Olaparib = compound: C1COCCN1CC2=CC(=O)C(=CO2)OCCCCCSC3=C4C=CC(=CC4=NC=C3)C(F)(F)F [EHT 1864] + O=C(c1cc(Cc2n[nH]c(=O)c3ccccc23)ccc1F)N1CCN(C(=O)C2CC2)CC1 [Olaparib] (partner 8 µM)
Summary of the method: as §1

EHT 1864 + Crizotinib = compound: C1COCCN1CC2=CC(=O)C(=CO2)OCCCCCSC3=C4C=CC(=CC4=NC=C3)C(F)(F)F [EHT 1864] + C[C@@H](Oc1cc(-c2cnn(C3CCNCC3)c2)cnc1N)c1c(Cl)ccc(F)c1Cl [Crizotinib] (partner 1 µM)
Summary of the method: as §1

EHT 1864 + Foretinib = compound: C1COCCN1CC2=CC(=O)C(=CO2)OCCCCCSC3=C4C=CC(=CC4=NC=C3)C(F)(F)F [EHT 1864] + COc1cc2c(Oc3ccc(NC(=O)C4(C(=O)Nc5ccc(F)cc5)CC4)cc3F)ccnc2cc1OCCCN1CCOCC1 [Foretinib] (partner 0.25 µM)
Summary of the method: as §1

EHT 1864 + Alpelisib = compound: C1COCCN1CC2=CC(=O)C(=CO2)OCCCCCSC3=C4C=CC(=CC4=NC=C3)C(F)(F)F [EHT 1864] + Cc1nc(NC(=O)N2CCC[C@H]2C(N)=O)sc1-c1ccnc(C(C)(C)C(F)(F)F)c1 [Alpelisib] (partner 2 µM)
Summary of the method: as §1

EHT 1864 + Lapatinib = compound: C1COCCN1CC2=CC(=O)C(=CO2)OCCCCCSC3=C4C=CC(=CC4=NC=C3)C(F)(F)F [EHT 1864] + CS(=O)(=O)CCNCc1ccc(-c2ccc3ncnc(Nc4ccc(OCc5cccc(F)c5)c(Cl)c4)c3c2)o1 [Lapatinib] (partner 2 µM)
Summary of the method: as §1

EHT 1864 = compound: C1COCCN1CC2=CC(=O)C(=CO2)OCCCCCSC3=C4C=CC(=CC4=NC=C3)C(F)(F)F [EHT 1864]
Summary of the method: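 Lung cancer cell lines in 1536-well plates were kept overnight at 37 °C, then pinned with five library-drug doses (not always all listed) spaced by √10 on vehicle-anchored plates. After 5 days without medium change, cells were fixed, permeabilised and Hoechst-stained in one step, imaged at 4×, and nuclei were counted with MetaXpress. Viability is treated-well nuclei divided by vehicle-well nuclei, taken as the median over plates. Plates passed only with control CV below 25% and at least one doubling.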

EHT 1864 + Phenformin = compound: C1COCCN1CC2=CC(=O)C(=CO2)OCCCCCSC3=C4C=CC(=CC4=NC=C3)C(F)(F)F [EHT 1864] + N=C(N)NC(=N)NCCc1ccccc1 [Phenformin] (partner 250 µM)
Summary of the method: as §1

EHT 1864 + Dasatinib = compound: C1COCCN1CC2=CC(=O)C(=CO2)OCCCCCSC3=C4C=CC(=CC4=NC=C3)C(F)(F)F [EHT 1864] + Cc1nc(Nc2ncc(C(=O)Nc3c(C)cccc3Cl)s2)cc(N2CCN(CCO)CC2)n1 [Dasatinib] (partner 0.075 µM)
Summary of the method: as §1

EHT 1864 + Tozasertib = compound: C1COCCN1CC2=CC(=O)C(=CO2)OCCCCCSC3=C4C=CC(=CC4=NC=C3)C(F)(F)F [EHT 1864] + Cc1cc(Nc2cc(N3CCN(C)CC3)nc(Sc3ccc(NC(=O)C4CC4)cc3)n2)n[nH]1 [Tozasertib] (partner 0.1 µM)
Summary of the method: as §1

EHT 1864 + OSI-027 = compound: C1COCCN1CC2=CC(=O)C(=CO2)OCCCCCSC3=C4C=CC(=CC4=NC=C3)C(F)(F)F [EHT 1864] + COc1cccc2cc(-c3nc([C@H]4CC[C@H](C(=O)O)CC4)n4ncnc(N)c34)[nH]c12 [OSI-027] (partner 0.5 µM)
Summary of the method: as §1

EHT 1864 + Luminespib = compound: C1COCCN1CC2=CC(=O)C(=CO2)OCCCCCSC3=C4C=CC(=CC4=NC=C3)C(F)(F)F [EHT 1864] + CCNC(=O)c1noc(-c2cc(C(C)C)c(O)cc2O)c1-c1ccc(CN2CCOCC2)cc1 [Luminespib] (partner 0.01 µM)
Summary of the method: as §1

Cell Line: EBC-1
- relative viability (EHT 1864 + Pictilisib; first compound 0.04 µM): 0.425
- relative viability (EHT 1864 + Pictilisib; first compound 0.1265 µM): 0.342
- relative viability (EHT 1864 + Pictilisib; first compound 0.4 µM): 0.385
- relative viability (EHT 1864 + Pictilisib; first compound 1.265 µM): 0.41
- relative viability (EHT 1864 + Pictilisib; first compound 4 µM): 0.426
- relative viability (EHT 1864 + Navitoclax; first compound 0.04 µM): 0.381
- relative viability (EHT 1864 + Navitoclax; first compound 0.1265 µM): 0.329
- relative viability (EHT 1864 + Navitoclax; first compound 0.4 µM): 0.449
- relative viability (EHT 1864 + Navitoclax; first compound 1.265 µM): 0.431
- relative viability (EHT 1864 + Navitoclax; first compound 4 µM): 0.429
- relative viability (EHT 1864 + Bortezomib; first compound 0.04 µM): 0.56
- relative viability (EHT 1864 + Bortezomib; first compound 0.1265 µM): 0.524
- relative viability (EHT 1864 + Bortezomib; first compound 0.4 µM): 0.505
- relative viability (EHT 1864 + Bortezomib; first compound 1.265 µM): 0.509
- relative viability (EHT 1864 + Bortezomib; first compound 4 µM): 0.541
- relative viability (EHT 1864 + Linsitinib; first compound 0.04 µM): 0.883
- relative viability (EHT 1864 + Linsitinib; first compound 0.1265 µM): 0.426
- relative viability (EHT 1864 + Linsitinib; first compound 0.4 µM): 0.914
- relative viability (EHT 1864 + Linsitinib; first compound 1.265 µM): 0.896
- relative viability (EHT 1864 + Linsitinib; first compound 4 µM): 0.99
- relative viability (EHT 1864 + Olaparib; first compound 0.04 µM): 0.74
- relative viability (EHT 1864 + Olaparib; first compound 0.1265 µM): 0.689
- relative viability (EHT 1864 + Olaparib; first compound 0.4 µM): 0.671
- relative viability (EHT 1864 + Olaparib; first compound 1.265 µM): 0.696
- relative viability (EHT 1864 + Olaparib; first compound 4 µM): 0.574
- relative viability (EHT 1864 + Crizotinib; first compound 0.04 µM): 0.18
- relative viability (EHT 1864 + Crizotinib; first compound 0.1265 µM): 0.181
- relative viability (EHT 1864 + Crizotinib; first compound 0.4 µM): 0.219
- relative viability (EHT 1864 + Crizotinib; first compound 1.265 µM): 0.205
- relative viability (EHT 1864 + Crizotinib; first compound 4 µM): 0.196
- relative viability (EHT 1864 + Foretinib; first compound 0.04 µM): 0.0988
- relative viability (EHT 1864 + Foretinib; first compound 0.1265 µM): 0.119
- relative viability (EHT 1864 + Foretinib; first compound 0.4 µM): 0.116
- relative viability (EHT 1864 + Foretinib; first compound 1.265 µM): 0.115
- relative viability (EHT 1864 + Foretinib; first compound 4 µM): 0.0993
- relative viability (EHT 1864 + Alpelisib; first compound 0.04 µM): 0.843
- relative viability (EHT 1864 + Alpelisib; first compound 0.1265 µM): 0.697
- relative viability (EHT 1864 + Alpelisib; first compound 0.4 µM): 0.886
- relative viability (EHT 1864 + Alpelisib; first compound 1.265 µM): 0.908
- relative viability (EHT 1864 + Alpelisib; first compound 4 µM): 0.881
- relative viability (EHT 1864 + Lapatinib; first compound 0.04 µM): 0.222
- relative viability (EHT 1864 + Lapatinib; first compound 0.1265 µM): 0.225
- relative viability (EHT 1864 + Lapatinib; first compound 0.4 µM): 0.194
- relative viability (EHT 1864 + Lapatinib; first compound 1.265 µM): 0.19
- relative viability (EHT 1864 + Lapatinib; first compound 4 µM): 0.238
- relative viability (EHT 1864; 0.04 µM): 0.942
- relative viability (EHT 1864; 0.1265 µM): 0.865
- relative viability (EHT 1864; 0.4 µM): 0.961
- relative viability (EHT 1864; 1.265 µM): 0.931
- relative viability (EHT 1864; 4 µM): 0.924

Cell Line: NCI-H1623
- relative viability (EHT 1864 + Phenformin; first compound 0.04 µM): 0.617
- relative viability (EHT 1864 + Phenformin; first compound 0.1265 µM): 0.665
- relative viability (EHT 1864 + Phenformin; first compound 0.4 µM): 0.576
- relative viability (EHT 1864 + Phenformin; first compound 1.265 µM): 0.617
- relative viability (EHT 1864 + Phenformin; first compound 4 µM): 0.539
- relative viability (EHT 1864 + Dasatinib; first compound 0.04 µM): 0.641
- relative viability (EHT 1864 + Dasatinib; first compound 0.1265 µM): 0.676
- relative viability (EHT 1864 + Dasatinib; first compound 0.4 µM): 0.514
- relative viability (EHT 1864 + Dasatinib; first compound 1.265 µM): 0.583
- relative viability (EHT 1864 + Dasatinib; first compound 4 µM): 0.477
- relative viability (EHT 1864 + Tozasertib; first compound 0.04 µM): 0.418
- relative viability (EHT 1864 + Tozasertib; first compound 0.1265 µM): 0.394
- relative viability (EHT 1864 + Tozasertib; first compound 0.4 µM): 0.445
- relative viability (EHT 1864 + Tozasertib; first compound 1.265 µM): 0.458
- relative viability (EHT 1864 + Tozasertib; first compound 4 µM): 0.399
- relative viability (EHT 1864 + Foretinib; first compound 0.04 µM): 0.937
- relative viability (EHT 1864 + Foretinib; first compound 0.1265 µM): 0.869
- relative viability (EHT 1864 + Foretinib; first compound 0.4 µM): 0.855
- relative viability (EHT 1864 + Foretinib; first compound 1.265 µM): 0.959
- relative viability (EHT 1864 + Foretinib; first compound 4 µM): 0.959
- relative viability (EHT 1864 + OSI-027; first compound 0.04 µM): 0.439
- relative viability (EHT 1864 + OSI-027; first compound 0.1265 µM): 0.433
- relative viability (EHT 1864 + OSI-027; first compound 0.4 µM): 0.474
- relative viability (EHT 1864 + OSI-027; first compound 1.265 µM): 0.475
- relative viability (EHT 1864 + OSI-027; first compound 4 µM): 0.432
- relative viability (EHT 1864 + Luminespib; first compound 0.04 µM): 0.584
- relative viability (EHT 1864 + Luminespib; first compound 0.1265 µM): 0.522
- relative viability (EHT 1864 + Luminespib; first compound 0.4 µM): 0.445
- relative viability (EHT 1864 + Luminespib; first compound 1.265 µM): 0.581
- relative viability (EHT 1864 + Luminespib; first compound 4 µM): 0.384
- relative viability (EHT 1864; 0.04 µM): 0.995
- relative viability (EHT 1864; 0.1265 µM): 0.972
- relative viability (EHT 1864; 0.4 µM): 1.02
- relative viability (EHT 1864; 1.265 µM): 0.921
- relative viability (EHT 1864; 4 µM): 1.14
